Laboratory results published in PMC4257840 (Journal of Medicinal Chemistry, 2014).
Each block holds one compound with its values, some of them ahead of it.

Key:
human liver Cat B = human liver Cat B (Homo sapiens, UniProt P07858); test: Cathepsin B inhibition assay; settings: read-out: Cat B IC50; mean ± SE
Der p 1 [1] = target: T1, Der p 1 (Dermatophagoides pteronyssinus, UniProt P08176); test: biochemical; format: biochemical; settings: mean ± SE
T1 sequence (P08176 99-320): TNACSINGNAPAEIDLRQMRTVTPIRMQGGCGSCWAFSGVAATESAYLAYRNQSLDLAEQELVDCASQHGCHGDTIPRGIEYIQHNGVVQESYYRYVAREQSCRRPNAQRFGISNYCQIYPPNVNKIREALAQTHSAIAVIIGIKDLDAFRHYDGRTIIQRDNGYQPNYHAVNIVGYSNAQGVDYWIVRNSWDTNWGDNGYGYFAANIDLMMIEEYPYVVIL

[2] = tested on: rat alveolar macrophage line NR8383; test: Stability in the presence of airway macrophages; format: in vitro ADME
Der p 1 [3] = target: T1, Der p 1; set-up: method as in PMID 9871695; settings: irreversible acyloxymethyl ketone inhibitors, Figure 1; cited from earlier work
[4] = Measurement of LogD7.4 (n-octanol/PBS shake); format: physicochemical; settings: for logD at 1.5 h: single determination, n-octanol/PBS pH 7.4, read-out: Log D7.4
Experimental: Appendix 4. Measurement of LogD7.4
Test compounds (~1 mg) were weighed into 2 mL HPLC vials. n- Octanol (0.7 mL), pre-saturated with 10 mM phosphate buffered saline pH7.4 (PBS), was added to each vial followed b y PBS (0. 7 mL), which had been pre-saturat ed with n-octanol. The mixtures were shaken for 90 min and then centrifuged for 10 min at 4,000 rpm. The upper organic l ayer (0.2 m L) and the aqueous la yer (0.5 mL) were removed from each vial and anal yz e d b y LC -MS. Mass spect ral anal ysis was used to confirm peak identity whilst the concentration of compound was assessed by a diode arra y det ecto r. The logD for each compound was calculated b y takin g th e lo g of its concentration ratio between the oct anol and aqueous la ye r s.Given the robustness of the assa y and the fact that the info rmation was us ed onl y for gen eral guid ance, thes e measu rements were based on singlicate det erminations.

[5] = Pharmacokinetics after oral and iv dosing to rats; format: in vivo, Sprague-Dawley rat; settings: for Cmax / bioavailability: male, Sprague-Dawley, plasma; for Cmax / bioavailability / free conc Cmax: rat; for Cmax / free conc Cmax: 5 mg/kg po; for bioavailability: po, 5 mg/kg, read-out: F % (bioavailability)
Experimental: (§1) Appendix 2. Pharmaco kinetics an d P l a s ma Protein Binding […]
Pharma cokinetics. In vivo PK characteristics were determined using non- fasted Sprague-Dawle y rats (mal e, 200-300 g, 10- 16 weeks of age) with groups of three animals per route per compound. Soluble formulations were developed and verified b y HP LC/UV s o that compounds were dosed discretel y b y the iv (1 mg/kg, 1 mL/kg) and po (5 mg/kg, 5 mL/kg) routes. Blood samples were obtained at various times after dosing and plasma prepared for LC -MS-MS quantification of the test substance after inclusion of an intern al standard . PK p aramet ers were calculated usin g a non -compartmental model in WinNonlin v5.2.
(§2) Plasma Protein Binding Assay. PPB was determined with a Rapid Equilibrium Dialysis device using 8 kDa molecular weight cut-off inserts (Fisher Scientific UK Ltd, Leicest ershire, UK) as described b y the manufacturer. R at (Sprague Dawl e y strain) plasma EDTA K2 (mixed gender, pooled, SeraLab, West Sussex, UK) was thawed and centrifuged at 13,000 x g for 10 min to remove precipitates before being spiked with compounds (5 µM). The concentrations of compounds in the plasma and buffer chambers were determined b y LC -MS-MS (AB Sciex 3200 QTrap) anal ysis after 4 h incubation at 37 °C. Binding was calculated from the concentration percentage in both chambers as shown below. Assays were p erfo rmed in replicate and the data

[6] = Plasma protein binding, Rapid Equilibrium Dialysis; format: in vitro ADME; settings: both sexes, Sprague Dawley, plasma (EDTA K2, pooled), rat plasma, 4 h at 37 °C, read-out: PPB (converted)
Experimental: as §1, §2

Der f 1 = Der f 1 (Dermatophagoides farinae, UniProt P16311); test: Group 1 HDM peptidase allergen inhibition assay (Der f 1); format: biochemical, D. farinae; settings: in vitro enzymatic assay, mean ± SE
Der f 1, sequence (P16311 99-321): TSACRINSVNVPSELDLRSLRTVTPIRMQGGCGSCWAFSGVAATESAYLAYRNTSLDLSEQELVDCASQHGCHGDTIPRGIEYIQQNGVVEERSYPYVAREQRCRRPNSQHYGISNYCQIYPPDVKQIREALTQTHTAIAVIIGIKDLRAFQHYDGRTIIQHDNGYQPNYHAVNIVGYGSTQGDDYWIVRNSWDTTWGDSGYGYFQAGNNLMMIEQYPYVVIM
Experimental: Automated screening of inhibitory activity toward group 1 HDM peptidase allergens was performed as described elsewhere[25],[43] with the minor modification that Der p 1 or Der f 1 were incubated with inhibitors for 20 min prior to initiation of reactions by addition of substrate. In initial screening, the activity of each compound was measured using a series of 10 doubling dilutions from a starting concentration of 50 μM. Compounds showing optimizable activity were cherry-picked for multiple (up to six) rounds of rescreening to confirm activity and stability and to determine IC50 values over a range of concentrations that were compound-directed by initial screening. Assays were performed in triplicate for calculation of mean ± SE IC50 values.

[7] = tested on: sensitized BN rats challenged with mixed HDM allergens; test: HDM allergen challenge of sensitized BN rats, BAL cells; format: in vivo, Brown Norway rat; settings: single dose 12 μg/kg (18 nmol/kg) 2 h prior to challenge, BAL 48 h
[8] = tested on: nonsensitized rats challenged with a natural mixture of HDM allergens; settings: for efficacy, inhibition of eosinophil recruitment: rat, in vivo; for duration of protection: trend of inhibition of eosinophil recruitment with increasing pre-treatment interval: i.t. aerosol typically 60-360 min prior to allergen challenge, unsensitised BN rats
recombinant human Cat S = recombinant human Cat S (Homo sapiens, UniProt P25774); test: Cathepsin S inhibition assay; format: biochemical; settings: in vitro enzymatic assay, mean ± SE; read-out: Cat S
recombinant human Cat S, sequence (P25774 115-331): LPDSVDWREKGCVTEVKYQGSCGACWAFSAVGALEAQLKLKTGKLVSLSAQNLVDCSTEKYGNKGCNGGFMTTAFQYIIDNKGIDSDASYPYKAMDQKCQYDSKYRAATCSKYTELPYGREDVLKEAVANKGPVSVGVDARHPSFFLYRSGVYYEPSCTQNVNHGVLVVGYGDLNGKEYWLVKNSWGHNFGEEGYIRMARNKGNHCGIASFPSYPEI

[9] = 5 mg/kg po compared with 1 mg/kg iv, nonfasted Sprague–Dawley rats, mean ± SE, n = 3

SMILES: CC(C)C(NC(=O)[C@H](C)NC(=O)[C@H](Cc1ccccc1)NC(=O)c1ccccc1)C(=O)C(=O)NC1CCCCC1 (mixture of isomers) [Compound 19]
IC50 (human liver Cat B): 52 ± 5 nM | IC50 (Der p 1 [1]): 18 ± 2 nM | remaining unchanged (processing by airway macrophages) ([2]; after 2 h): ~70%

SMILES: CCCC[C@H](NC(=O)[C@H](C)NC(=O)[C@@H](NC(=O)c1ccccc1)C(C)C)C(=O)COC(=O)c1ccccc1 [Compound 1]
Kobs/[I] (Der p 1 [3]): 210000 M⁻¹ s⁻¹

SMILES: CCCC[C@H](NC(=O)[C@H](C)NC(=O)[C@@H](NC(=O)c1ccccc1)C(C)C)C(=O)COC(=O)c1c(C(F)(F)F)cccc1C(F)(F)F [Compound 2]
Kobs/[I] (Der p 1 [3]): 1.6e+06 M⁻¹ s⁻¹

degraded by airway macrophages ([2]; over a 2 h period): > 50%
SMILES: CCCC[C@H](NC(=O)[C@H](C)NC(=O)[C@H](Cc1ccccc1)NC(=O)c1ccccc1)C(=O)C(=O)NC1CCCCC1 [Compound 5, N-{(S)-1-[(S)-1-((S)-1-Cyclohexylaminooxalyl-pentylcarbamoyl)-ethylcarbamoyl]-2-phenyl-ethyl}-benzamide]

SMILES: CC(C)[C@H](NC(=O)[C@H](C)NC(=O)[C@@H](NC(=O)c1ccccc1)C(C)(C)C)C(=O)C(=O)NC1CCCCC1 [Compound 22, N-{(S)-1-[(S)-1-((S)-1-Cyclohexylaminooxalyl-2-methyl-propylcarbamoyl)-ethylcarbamoyl]-2,2-dimethyl-propyl}-benzamide]
IC50 (human liver Cat B): 378 ± 27 nM | IC50 (Der p 1 [1]): 14 ± 3 nM | degradation by airway macrophages ([2]; over 2 h): no significant degradation | logD at 1.5 h [4]: 3.9

SMILES: CC(C)[C@H](NC(=O)[C@H](C)NC(=O)[C@@H](N1Cc2ccccc2C1=O)C(C)(C)C)C(=O)C(=O)NCc1ccccc1 [Compound 28, (S)-3-{(S)-2-[(S)-3,3-Dimethyl-2-(1-oxo-1,3-dihydro-isoindol-2-yl)-butyrylamino]-propionylamino}-4-methyl-2-oxo-pentanoic Acid Benzylamide]
Cmax ([5]; mean ± SE, n = 3): 663 ± 26 nM | bioavailability [5, 9]: 20 ± 1% | free conc Cmax [5]: 11 ± 0 nM | IC50 (human liver Cat B): 429 ± 65 nM | fraction unbound at 4 h, 5 µM [6]: 0.02 | IC50 (Der p 1 [1]): 7 ± 1 nM | logD at 1.5 h [4]: 3.6

SMILES: CC(C)[C@H](NC(=O)[C@H](C)NC(=O)[C@@H](NC(=O)C1CC[N+](C)(C)CC1)C(C)(C)C)C(=O)C(=O)NCc1ccccc1.O=C[O-] [Compound 32, 4-{(S)-1-[(S)-1-((S)-1-Benzylaminooxalyl-2-methyl-propylcarbamoyl)-ethylcarbamoyl]-2,2-dimethyl-propylcarbamoyl}-1,1-dimethyl-piperidinium Formate]
F % (bioavailability) [5, 9]: 0.6 ± 0.2% | Cmax ([5]; mean ± SE, n = 3): 20 ± 13 nM | bioavailability [5, 9]: 1% | free conc Cmax [5]: 8 ± 0 nM | IC50 (Der f 1): 4 nM | IC50 (human liver Cat B): 274 ± 44 nM | fraction unbound at 4 h, 5 µM [6]: 0.388 | eosinophil recruitment [7]: marked inhibition | increase in total nucleated cells recoverable by BAL [7]: significantly blunted | efficacy, inhibition of eosinophil recruitment [8]: Good efficacy | logD at 1.5 h [4]: -0.9

SMILES: CC(C)[C@H](NC(=O)[C@H](C)NC(=O)[C@@H](NC(=O)c1ccccc1)C(C)(C)C)C(=O)C(=O)NC1CC1 [Compound 35]
Cmax ([5]; mean ± SE, n = 3): 1140 ± 268 nM | bioavailability [5, 9]: 90 ± 11% | free conc Cmax [5]: 176 ± 0 nM | IC50 (human liver Cat B): 417 ± 25 nM | fraction unbound at 4 h, 5 µM [6]: 0.155 | IC50 (Der p 1 [1]): 17 ± 1 nM | duration of protection: trend of inhibition of eosinophil recruitment with increasing pre-treatment interval [8]: rise to well-maintained | logD ([4]; pH 7.4, versus compound 22, read-out: reduction of measured log D on replacing cyclohexyl (22) by cyclopropyl): ~1.5 | logD at 1.5 h [4]: 2.4

SMILES: CC(C)[C@H](NC(=O)[C@H](C)NC(=O)[C@H](Cc1ccccc1)NC(=O)c1ccccc1)C(=O)C(=O)NCC(=O)N1CC[N+](C)(C)CC1.O=C[O-] [Compound 52, 4-(2-{(S)-3-[(S)-2-((S)-2-Benzoylamino-3-phenyl-propionylamino)-propionylamino]-4-methyl-2-oxo-pentanoylamino}-acetyl)-1,1-dimethyl-piperazin-1-ium Formate]
Cmax ([5]; mean ± SE, n = 3): 7 ± 2 nM | bioavailability [5, 9]: 0% | free conc Cmax [5]: 3 ± 0 nM | IC50 (Der f 1): 11 ± 1 nM | IC50 (recombinant human Cat S): 114 ± 7 nM | IC50 (human liver Cat B): > 2500 nM | fraction unbound at 4 h, 5 µM [6]: 0.365 | efficacy, inhibition of eosinophil recruitment [8]: Good efficacy | logD at 1.5 h [4]: -0.6

SMILES: CC(C)[C@H](NC(=O)[C@H](C)NC(=O)[C@H](Cc1ccccc1)NC(=O)c1cccc2ccccc12)C(=O)C(=O)NCC(=O)N1CCN(C)CC1 [Compound 53, Naphthalene-1-carboxylic Acid [(S)-1-((S)-1-{(S)-2-Methyl-1-[2-(4-methyl-piperazin-1-yl)-2-oxo-ethylaminooxalyl]-propylcarbamoyl}-ethylcarbamoyl)-2-phenyl-ethyl]-amide]
IC50 (human liver Cat B): 540 ± 28 nM | IC50 (Der p 1 [1]): 20 ± 3 nM | duration of protection: trend of inhibition of eosinophil recruitment with increasing pre-treatment interval [8]: waned | logD at 1.5 h [4]: 2
